# Laboratory results published in patent US20180021270A1, “METHODS FOR THE TREATMENT OF CANCER USING COENZYME Q10 IN COMBINATION WITH IMMUNE CHECKPOINT MODULATORS” (Berg LLC, priority 2016, published 2018).
# What was measured:
# [1] = tested on: PD-L1 protein on the surface of ovarian cancer cells (SKOV-3); test: Flow cytometry of PD-L1 protein on the cancer cell surface; type: cell-based, human; conditions: SKOV-3, 72 hours after treatment
# Experimental: (§1) Flow cytometry analysis with a fluorescent probe for PD-L1 was used to determine the expression of PD-L1 protein on the surface of various human cancer cell lines. The cells were treated with 100 μM Coenzyme Q10, or the IC50 of Coenzyme Q10 for each cell line. […] The increased PD-L1 levels observed in breast cancer cells in response to Coenzyme Q10 treatment were not due to changes in cell populations.
# (§2) Human pancreatic (MIA PaCa-2), ovarian (SKOV-3), and lung (A549) cancer cell lines treated with Coenzyme Q10 were also analyzed by flow cytometry to determine PD-L1 protein expression on the cancer cell surface.
# [2] = tested on: PD-L1 protein on the surface of lung cancer cells (A549); test: as above; type: cell-based, human; conditions: A549, 72 hours after treatment
# Experimental: as §1, §2
# [3] = tested on: PD-L1 protein on the surface of pancreatic cancer cells (MIA PaCa-2); test: as above; type: cell-based, human; conditions: MIA PaCa-2, 72 hours after treatment
# Experimental: as §1, §2
# [4] = tested on: breast (MDA-MB231), prostate (LnCAP), ovarian (SKOV-3), colon (HT29), lung (A549), liver (Huh-7), and pancreatic (MIA PaCa-2) cancer cells; test: mRNA expression of PD1, PD-L1 and PD-L2 in cancer cells treated with Coenzyme Q10 (other treatment groups); type: cell-based, human; conditions: 50 μM, 100 μM or IC50 of Coenzyme Q10; all groups other than PD-L1 in HT29 at 50 μM
# Experimental: Levels of mRNA expression of the immune checkpoints PD1, PD-L1 and PD-L2 were determined in human breast (MDA-MB231), prostate (LnCAP), ovarian (SKOV-3), colon (HT29), lung (A549), liver (Huh-7), and pancreatic (MIA PaCa-2) cancer cells treated with 50 μM Coenzyme Q10, 100 μM Coenzyme Q10, or the IC50 of Coenzyme Q10 for each cell line.
# [5] = tested on: tumor associated macrophages (TAMs) in murine Pan02 pancreatic tumors; test: F4/80 IHC pathological scoring of tumor associated macrophages in Pan02 tumors; type: in vivo, mouse
# Experimental: Pancreatic tumor samples from mice treated with different doses of Coenzyme Q10 were analyzed for the presence of tumor associated macrophages (TAMs). TAMs are found in close proximity to or within tumors and support tumor growth. C57B1/6 female mice were inoculated with Pan02 cells. When tumors reached a mean volume of 100 mm^3, animals were randomized into four groups and treated with vehicle control or Coenzyme Q10 (25, 50 or 100 mg/kg) twice daily for 21 days. At the end of the study, tumors were removed and subjected to immunohistochemistry (IHC) analysis for TAMs using the F4/80 marker. All slides were subjected to a pathological scoring. […] As shown in FIGS. 28A and 28B, Coenzyme Q10 decreased TAMs in a dose dependent manner.
# [6] = tested on: PD-L1 protein on the surface of mouse syngeneic tumor cell lines; test: PD-L1 protein on the surface of mouse syngeneic tumor cells; type: cell-based; conditions: with or without INFγ, IC50 amount of Coenzyme Q10, 24 hours
# Experimental: The effect of Coenzyme Q10 on the level of PD-L1 protein on the surface of the mouse syngeneic tumor cells was also evaluated. Mouse syngeneic tumor cell lines from different tissue types were cultured with or without interferon γ (INFγ) in the presence or absence of their corresponding IC50 amount of Coenzyme Q10 at 37° C. for 24 hours.
# [7] = tested on: CD3 positive murine T cells within Balb/c PBMCs; test: Viability of murine CD3 positive T cells within PBMCs; type: cell-based, mouse; conditions: 0-800 μM, 24 hours, dose-dependent, non-stimulated and PHA-stimulated cells
# Experimental: The effects of Coenzyme Q10 on murine immune cells were also evaluated to determine whether Coenzyme Q10 has similar effects as those described above for human immune cells. For example, the viability of murine CD3 positive T cells within PHA-stimulated or unstimulated Balb/c PBMCs was determined. Cells were concurrently treated with Coenzyme Q10 (0, 12.5, 50, 200, 400 or 800 μM) for 24 hours and analyzed by flow cytometry using surface marker antibody for αCD3 and viability stains Annexin V/7AAD. CD3 positive and CD3 negative cell populations were identified within total cell population excluding debris, and viability was determined by plotting Annexin V-FITC vs. 7AAD. Two experiments using two different pools of Balb/c PBMCs and one experiment using C57B1/6 PBMCs were conducted. As shown in FIGS. 21A and 21B, Coenzyme Q10 increased the viability of CD3 positive murine T cells in a dose-dependent manner for both non-stimulated and PHA-stimulated cells.
# interferon-γ (IFN-γ) = test: Cytokine ELISA in PBMC supernatants; type: cell-based, human; conditions: during PHA activation, various concentrations of Coenzyme Q10
# Experimental: (§3) Cytokines were measured in the PBMCs according to the manufacturer's protocol for R&D Quantikine ELISA kits (R&D Systems, Inc., Minneapolis, Minn.) specific to each cytokine. PBMCs were collected from 3 donors (D003F, D004F and D005F).
# IL-10 = test: Cytokine ELISA in PBMC supernatants; type: cell-based, human; conditions: during PHA activation, various concentrations of Coenzyme Q10
# Experimental: as §3
# IL-2 = test: Cytokine ELISA in PBMC supernatants; type: cell-based, human; conditions: during PHA activation, various concentrations of Coenzyme Q10
# Experimental: as §3
# [8] = tested on: mouse syngeneic tumor cell lines (LL2, Hepa1-6, B16F10, CT26, EMT6/P, Renca); test: Cell viability (CellTiter-Fluor), all six mouse syngeneic tumor cell lines; type: cell-based; conditions: 0-25 mM, 72 hours, dose dependent
# Experimental: The sensitivity of mouse syngeneic tumor cell lines to Coenzyme Q10 was evaluated in vitro. Six mouse syngeneic tumor cell lines from different tissue types were exposed to increasing concentrations of Coenzyme Q10 (0-25 mM) at 37° C. for 72 hours. Cell viability was measured using CellTiter-Fluor kit (Promega, Madison, Wis.). Graphs and IC50 values were calculated using GraphPad Prism using data for at least three independent experiments. Mouse syngeneic tumor cell lines evaluated were Lewis lung carcinoma (LL2), hepatoma (Hepa1-6) skin melanoma (B16F10), colon cancer (CT26), mammary gland adenocarcinoma (EMT6/P), and renal adenocarcinoma (Renca). As shown in FIGS. 24A-24F, Coenzyme Q10 reduced viability of all of the tumor cell lines in a dose dependent manner.
# [9] = 25 mg/kg twice daily for 21 days
# [10] = 50 mg/kg twice daily for 21 days
# [11] = 100 mg/kg twice daily for 21 days
smiles,measurement,setting,value
COC1=C(OC)C(=O)C(C/C=C(\C)CC/C=C(\C)CC/C=C(\C)CC/C=C(\C)CC/C=C(\C)CC/C=C(\C)CC/C=C(\C)CC/C=C(\C)CC/C=C(\C)CCC=C(C)C)=C(C)C1=O [Coenzyme Q10],Amount of PD-L1 protein on the cell surface,[1],small but significant increase
same,Percentage of cells having PD-L1 protein on their surface,[1],did not significantly change
same,Amount of PD-L1 on the cell surface,[2],did not significantly change
same,Percentage of cells having PD-L1 protein on their surface,[2],did not significantly change
same,Amount of PD-L1 protein on the cell surface,[3],significantly increased
same,Percentage of cells having PD-L1 protein on their surface,[3],significantly increased
same,"PD1, PD-L1 and PD-L2 mRNA expression, other treatment groups",[4],no significant differences
same,Percentage of mice with TAM levels Higher than Control,[5]; [9],0%
same,Percentage of mice with TAM levels Lower than Control,[5]; [9],20%
same,Percentage of mice with TAM levels Similar to Control,[5]; [9],80%
same,Percentage of mice with TAM levels Higher than Control,[5]; [10],0%
same,Percentage of mice with TAM levels Lower than Control,[5]; [10],85.8%
same,Percentage of mice with TAM levels Similar to Control,[5]; [10],14.3%
same,Percentage of mice with TAM levels Higher than Control,[5]; [11],0%
same,Percentage of mice with TAM levels Lower than Control,[5]; [11],44.4%
same,Percentage of mice with TAM levels Similar to Control,[5]; [11],55.6%
same,Tumor associated macrophages (TAMs) in tumors,"[5]; 25, 50 or 100 mg/kg twice daily for 21 days",decreased
same,Level of PD-L1 protein on the cell surface,[6],did not have any effect
same,Viability of CD3 positive murine T cells,[7],increased
same,IFN-γ level in supernatant,interferon-γ (IFN-γ),increased
same,IL-10 level in supernatant,IL-10,dose-dependently decreased
same,IL-2 level in supernatant,IL-2,increased
same,Viability of all of the tumor cell lines,[8],reduced
